Laboratory results reported in patent US20250034520A1, “INCREASING DEVELOPMENTAL POTENTIAL OF HUMAN PREIMPLANTATION EMBRYOS BY REDUCING GENETIC INSTABILITY, ANEUPLOIDIES AND CHROMOSOMAL MOSAICISM” (THE TRUSTEES OF COLUMBIA UNIVERSITY IN THE CITY OF NEW YORK, priority 2022, published 2025).
Entries after “also recorded” stand apart in the source; their conditions may differ.

Experiments:
Assay type in all cases: cell-based
mouse zygotes = assay: DNA damage foci immunostaining in mouse zygotes/embryos
Method: (§1) Embryos, mouse and human, were cultured in Global Total (Life-Global) for the duration of the experiments and with added compounds as outlined below. Incubation in RNA polymerase inhibitors triptolide (1 mM) or alpha amanitin (20 mg/ml) was performed from the 2PN stage (day1) to day3 of human development. Incubation in aphidicolin was performed at 2 mM. […] Mirin was used at a concentration of 50 mM. Olaparib was used to inhibit PARP at a concentration of 10 mM. All experiments were conducted during incubation at 37° C. with 5% CO2 and 19-20% O2. Chemical stock solutions were prepared in DMSO at concentrations at least 1000× higher than the final concentration.
(§2) Mouse oocytes were activated at 1-6 hours post retrieval using 2 mM ionomycin (Sigma Aldrich) in Global Total medium for 5 minutes at 37° C. followed by culture in 10 mM puromycin and 5 mg/ml cytochalasin B for 3 hours, then cytochalasinB only for 2 hours and 10 minutes to prevent second polar body extrusion.
(§3) Following the experimental exposures, mouse and human embryos were fixed in 2% paraformaldehyde (PFA) and 0.25% Triton X-100 in PBS for 10 minutes at room temperature, serially washed in phosphate-buffered solution (PBS) at room temperature, then stored in PBS at 4° C. until staining and imaging. Embryos were placed in 10-20 ml droplets of primary antibody solution within plastic tissue culture dishes covered with mineral oil for 1 hour at room temperature, serially washed (×2) in PBS containing 0.01% Triton X-100 to prevent embryos sticking to oil, then transferred to 10-20 ml secondary antibody solution and Hoechst (dilution 1:500) for 30 minutes. Embryos were then serially washed (×2) and placed in 5 ml droplets of PBS with 0.5% serum albumin in uncoated glass bottom dishes (Mattek) covered with embryo culture oil for imaging. The following primary antibodies were used across experiments as described above: Oct-4, γH2AX, RPA32, RPA32 S4/S8, RPA32 S33, 53BP1, RAD51, Centromere, and phospho-CHK1. Phospho-specific antibodies were quality controlled through ATR dependence of foci formation in mouse zygotes, and for γH2AX also in human zygotes. […] The appropriate secondary antibodies conjugated with Alexa Fluor 488, Alexa Fluor 555, CF 568, or Alexa Fluor 647 were diluted at 1:500-1:1000. Ethynyl deoxyuridine (EdU) labeling of zygotes and embryos was performed using the labeling kit (Thermo Fisher Scientific) as described by the manufacturer. 10 mM EdU was added to culture medium for 1 h at the indicated time points, and cells were harvested and fixed thereafter. 5-ethynyl uridine (EU) labeling was performed by incubating day3 cleavage stage embryos for 4 hours in Global total containing 0.2 mM EU.
Embryos were imaged with confocal microscopy using a Zeiss LSM (LSM 710) at a magnification of 63× and the Zeiss Zen software. Images were obtained using 488-, 543- and 633-nm lasers and bright-field microscopy. The number of confocal sections was adjusted to capture the entire nucleus or the entire embryo according to the experimental design as described above. Cell numbers and staining foci numbers were counted manually. Nuclei were identified by the presence of Hoechst33342. Foci were identified if at least 3× greater intensity than nuclear average, spherical in appearance, and overlapping with Hoechst33342 staining. Inner cell masses were identified by the presence of Oct4 within a blastocyst embryo. Active DNA replication was identified by the presence of EdU. DNA damage was identified by the detection of γH2AX and RPA foci within the nucleus. Mechanisms of DNA repair were identified through the detection of RPA S4/S8, RPA S33, Rad51 and 53BP1 foci within the nucleus.

[1] = tested on: human zygotes and parthenotes; assay: timing of mitotic entry in human zygotes and parthenotes; details: for mitotic entry: human parthenotes
Method: as §1
Artificial activation of human MII oocytes was performed using two pulses of 2.7 kV/cm at 50 ms using ECFG21 (Nepagene) in fusion buffer consisting of 0.25 M d-sorbitol buffer containing 0.1 mM calcium acetate, 0.5 mM magnesium acetate, 0.5 mM HEPES, and 1 mg ml^−1 fatty-acid-free BSA as previously described (Tachibana et al., 2013). Thereafter, oocytes were incubated for 3.5-4 h in 10 mg/ml puromycin, followed by a wash step and following culture in Global total.

mouse 1-cell embryos = assay: timing of mitotic entry in mouse 1-cell embryos; details: application in G2 phase, depending on the time point of application
Method: as §1, §2

[2] = tested on: mouse parthenogenetic zygotes; assay: anaphase figures at the first mitosis, mouse parthenogenetic zygotes
Method: as §1, §2, §3

human embryos = assay: nucleation and development of human embryos
Source text: Cryopreserved human cleavage-stage and blastocyst embryos and unfertilized oocytes were anonymously donated from individuals and couples who provided consent for use in research. Embryos were of good quality and had been cryopreserved for potential clinical use but were then no longer needed and donated for research. The cause of treatment is not disclosed. Range of maternal age of donated embryos is between 27-43. Embryos of both sexes were used, as provided by the unbiased fertilization of oocytes with sperm carrying either a Y or X chromosome. Cleavage stage embryos were thawed using the one-step thaw protocol using Global total with HEPES. Blastocyst stage embryos were thawed using the Quinn's Advantage thaw kit, then exposed to experimental conditions as outlined below. Vitrified embryos were thawed with the ECMPC warming solution set. Embryo culture was performed in Global Total. All experiments were conducted during incubation at 37° C. with 5% CO2 and 20% 02.
as §1
Following the experimental exposures, mouse and human embryos were fixed in 2% paraformaldehyde (PFA) and 0.25% Triton X-100 in PBS for 10 minutes at room temperature, serially washed in phosphate-buffered solution (PBS) at room temperature, then stored in PBS at 4° C. until staining and imaging. Embryos were placed in 10-20 ml droplets of primary antibody solution within plastic tissue culture dishes covered with mineral oil for 1 hour at room temperature, serially washed (×2) in PBS containing 0.01% Triton X-100 to prevent embryos sticking to oil, then transferred to 10-20 ml secondary antibody solution and Hoechst (dilution 1:500) for 30 minutes. Embryos were then serially washed (×2) and placed in 5 ml droplets of PBS with 0.5% serum albumin in uncoated glass bottom dishes (Mattek) covered with embryo culture oil for imaging. […]
Embryos were imaged with confocal microscopy using a Zeiss LSM (LSM 710) at a magnification of 63× and the Zeiss Zen software. […] Cell numbers and staining foci numbers were counted manually. […]

[3] = mice, aphidicolin incubation in G2 phase

SMILES: C[C@@]1(CO)[C@H](O)CC[C@@]2(C)[C@H]1CC[C@H]1C[C@@H]3C[C@@]12CC[C@]3(O)CO [aphidicolin]
- markers of DNA damage (γH2AX, Rpa32, Rpa32 phosphoS33) (mouse zygotes; 4-8 cell stage, 48 h post activation): increased
- time to formation of phospho-RPA32, γH2AX and Rad51 foci after fork stalling (mouse zygotes; G2 arrested zygotes): 2 to 4 h
- time to resolution of foci after release from the compound (mouse zygotes; G2 arrested zygotes): 1 to 2 h
- RPA32-positive foci per haploid nucleus, average (mouse zygotes; mice, aphidicolin incubation): 4.5 per haploid nucleus
- γH2AX foci positive for RPA32 (mouse zygotes; mice, aphidicolin incubation): Approximately 10%
- mean γH2AX foci (mouse zygotes; [3]): 43
- γH2AX foci, range (mouse zygotes; [3]): 0-228
- mitotic entry ([1]; incubation at 14 h): prevented mitotic entry
- mitotic entry ([1]; incubation at 15.5 h, compared with controls): allowed mitotic entry with a delay
- mitotic entry timing ([1]; human, incubation at 18 h): no effects; also recorded: did not delay
- mitotic entry (mouse 1-cell embryos): inhibited
- embryos with abnormal anaphase, range per experiment ([2]; aphidicolin in G2 phase): 7%-30%
- embryos with abnormal anaphase ([2]; aphidicolin in G2 phase, controls 191/191 normal): 17.4%
- effect on chromosome segregation at anaphase ([2]; applied only after pronuclear envelope breakdown): inconsequential
- frequency of abnormal anaphase figures ([2]; both ATR kinase inhibitor and aphidicolin in G2 phase): 63%
- formation of multinucleate cells (human embryos; 6 parthenogenetically activated embryos, aphidicolin and G2 checkpoint kinase inhibitor at 15.5 h): uniformly resulting in the formation of multinucleate cells
- failure to polarize chromosomes in the nucleus (human embryos; aphidicolin-treated human parthenotes): 16/17
